Source: ChEMBL document CHEMBL4665775, “Half-life extension of peptidic APJ agonists by N-terminal lipid conjugation” (Bioorg Med Chem Lett, 2020)
pEC50: −log10 of the molar value.

What was measured:
Apelin receptor = molecular target: T1, Apelin receptor (Rattus norvegicus, UniProt Q9JHG3); test: Agonist activity at rat APJ receptor stably expressed in CHO cell membranes in presence of [35S]GTPgammaS by scintillation proximity assay; format: functional
T1 sequence (Q9JHG3 whole entry): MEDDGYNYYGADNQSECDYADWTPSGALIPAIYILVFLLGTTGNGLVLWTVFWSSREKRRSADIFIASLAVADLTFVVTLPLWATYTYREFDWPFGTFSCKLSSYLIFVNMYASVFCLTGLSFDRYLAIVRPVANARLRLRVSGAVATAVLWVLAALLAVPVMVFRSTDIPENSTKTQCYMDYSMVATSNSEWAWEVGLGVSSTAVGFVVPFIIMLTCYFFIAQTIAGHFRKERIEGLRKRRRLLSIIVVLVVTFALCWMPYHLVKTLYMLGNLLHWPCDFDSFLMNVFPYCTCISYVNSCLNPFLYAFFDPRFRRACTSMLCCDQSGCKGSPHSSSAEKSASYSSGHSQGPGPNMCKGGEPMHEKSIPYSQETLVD

[1] = Plasma protein binding in rat assessed as unbound fraction by LC-MS/MS analysis; format: ADME, cell-free
[2] = Stability in rat Kidney S9 fraction assessed as compound remaining at 4 hrs; format: ADME, subcellular; settings: read-out: Stabilty
[3] = Stability in rat plasma assessed as compound remaining at 4 hrs; format: ADME, cell-free; settings: read-out: Stabilty

SMILES	pEC50 (Apelin receptor)	fraction unbound [1]	remaining at 4 h [2] [%]	remaining at 4 h [3] [%]
CCCCCCCCCCCCCCCCCC(=O)N[C@@H](CCC(=O)NCCOCCOCC(=O)NCCOCCOCC(=O)N[C@@H](CCCCNC(=N)N)C(=O)N[C@H](CCCNC(=N)N)C(=O)N[C@@H](CCC(N)=O)C(=O)N[C@@H](CCCCNC(=N)N)C(=O)N1CCC[C@H]1C(=O)N[C@H](CCCNC(=N)N)C(=O)N(C)[C@@H](CC(C)C)C(=O)N[C@@H](CO)C(=O)N[C@@H](Cc1c[nH]cn1)C(=O)N[C@@H](CCCCN)C(=O)NCC(=O)N1[C@H](C(=O)N[C@@H](Cc2ccc(I)cc2)C(=O)N2CCC[C@H]2C(=O)N[C@H](Cc2ccc(-c3ccccc3)cc2)C(=O)O)C[C@@H]2CCCC[C@@H]21)C(=O)O	8.42			
CCCCCCCCCCCCCC(=O)N[C@@H](CCC(=O)NCCOCCOCC(=O)NCCOCCOCC(=O)N[C@@H](CCCCNC(=N)N)C(=O)N[C@H](CCCNC(=N)N)C(=O)N[C@@H](CCC(N)=O)C(=O)N[C@@H](CCCCNC(=N)N)C(=O)N1CCC[C@H]1C(=O)N[C@H](CCCNC(=N)N)C(=O)N(C)[C@@H](CC(C)C)C(=O)N[C@@H](CO)C(=O)N[C@@H](Cc1c[nH]cn1)C(=O)N[C@@H](CCCCN)C(=O)NCC(=O)N1[C@H](C(=O)N[C@@H](Cc2ccc(I)cc2)C(=O)N2CCC[C@H]2C(=O)N[C@H](Cc2ccc(-c3ccccc3)cc2)C(=O)O)C[C@@H]2CCCC[C@@H]21)C(=O)O	8.44	0.0023		
CCCCCCCCCCCC(=O)N[C@@H](CCC(=O)NCCOCCOCC(=O)NCCOCCOCC(=O)N[C@@H](CCCCNC(=N)N)C(=O)N[C@H](CCCNC(=N)N)C(=O)N[C@@H](CCC(N)=O)C(=O)N[C@@H](CCCCNC(=N)N)C(=O)N1CCC[C@H]1C(=O)N[C@H](CCCNC(=N)N)C(=O)N(C)[C@@H](CC(C)C)C(=O)N[C@@H](CO)C(=O)N[C@@H](Cc1c[nH]cn1)C(=O)N[C@@H](CCCCN)C(=O)NCC(=O)N1[C@H](C(=O)N[C@@H](Cc2ccc(I)cc2)C(=O)N2CCC[C@H]2C(=O)N[C@H](Cc2ccc(-c3ccccc3)cc2)C(=O)O)C[C@@H]2CCCC[C@@H]21)C(=O)O	8.45	0.0013		
CC(C)C[C@@H](C(=O)N[C@@H](CO)C(=O)N[C@@H](Cc1c[nH]cn1)C(=O)N[C@@H](CCCCN)C(=O)NCC(=O)N1[C@H](C(=O)N[C@@H](Cc2ccc(I)cc2)C(=O)N2CCC[C@H]2C(=O)N[C@H](Cc2ccc(-c3ccccc3)cc2)C(=O)O)C[C@@H]2CCCC[C@@H]21)N(C)C(=O)[C@@H](CCCNC(=N)N)NC(=O)[C@@H]1CCCN1C(=O)[C@H](CCCCNC(=N)N)NC(=O)[C@H](CCC(N)=O)NC(=O)[C@@H](CCCNC(=N)N)NC(=O)[C@H](CCCCNC(=N)N)NC(=O)COCCOCCNC(=O)COCCOCCNC(=O)CC[C@H](NC(=O)CCCCCCCCCCCCC(=O)O)C(=O)O	7.75			
CCCCCCCCCCCCCCCC(=O)N[C@@H](CCC(=O)NCCOCCOCC(=O)NCCOCCOCC(=O)N[C@@H](CCCCNC(=N)N)C(=O)N[C@H](CCCNC(=N)N)C(=O)N[C@@H](CCC(N)=O)C(=O)N[C@@H](CCCCNC(=N)N)C(=O)N1CCC[C@H]1C(=O)N[C@H](CCCNC(=N)N)C(=O)N(C)[C@@H](CC(C)C)C(=O)N[C@@H](CO)C(=O)N[C@@H](Cc1c[nH]cn1)C(=O)N[C@@H](CCCCN)C(=O)NCC(=O)N1[C@H](C(=O)N[C@@H](Cc2ccc(I)cc2)C(=O)N2CCC[C@H]2C(=O)N[C@H](Cc2ccc(-c3ccccc3)cc2)C(=O)O)C[C@@H]2CCCC[C@@H]21)C(=O)O	8.40	0.0189		
CC(C)C[C@@H](C(=O)N[C@@H](CO)C(=O)N[C@@H](Cc1c[nH]cn1)C(=O)N[C@@H](CCCCN)C(=O)NCC(=O)N1[C@H](C(=O)N[C@@H](Cc2ccc(I)cc2)C(=O)N2CCC[C@H]2C(=O)N[C@H](Cc2ccc(-c3ccccc3)cc2)C(=O)O)C[C@@H]2CCCC[C@@H]21)N(C)C(=O)[C@@H](CCCNC(=N)N)NC(=O)[C@@H]1CCCN1C(=O)[C@H](CCCCNC(=N)N)NC(=O)[C@H](CCC(N)=O)NC(=O)[C@@H](CCCNC(=N)N)NC(=O)[C@H](CCCCNC(=N)N)NC(=O)COCCOCCNC(=O)COCCOCCNC(=O)CC[C@H](NC(=O)CCCCCCCCCCCCCCC(=O)O)C(=O)O	7.25			
CC(C)C[C@@H](C(=O)N[C@@H](CO)C(=O)N[C@@H](Cc1c[nH]cn1)C(=O)N[C@@H](CCCCN)C(=O)NCC(=O)N1[C@H](C(=O)N[C@@H](Cc2ccc(I)cc2)C(=O)N2CCC[C@H]2C(=O)N[C@H](Cc2ccc(-c3ccccc3)cc2)C(=O)O)C[C@@H]2CCCC[C@@H]21)N(C)C(=O)[C@@H](CCCNC(=N)N)NC(=O)[C@@H]1CCCN1C(=O)[C@H](CCCCNC(=N)N)NC(=O)[C@H](CCC(N)=O)NC(=O)[C@@H](CCCNC(=N)N)NC(=O)[C@H](CCCCNC(=N)N)NC(=O)COCCOCCNC(=O)COCCOCCNC(=O)CC[C@H](NC(=O)CCCCCCCCCCC(=O)O)C(=O)O	8.03			
CCCCCCCC(=O)N[C@@H](CCC(=O)NCCOCCOCC(=O)NCCOCCOCC(=O)N[C@@H](CCCCNC(=N)N)C(=O)N[C@H](CCCNC(=N)N)C(=O)N[C@@H](CCC(N)=O)C(=O)N[C@@H](CCCCNC(=N)N)C(=O)N1CCC[C@H]1C(=O)N[C@H](CCCNC(=N)N)C(=O)N(C)[C@@H](CC(C)C)C(=O)N[C@@H](CO)C(=O)N[C@@H](Cc1c[nH]cn1)C(=O)N[C@@H](CCCCN)C(=O)NCC(=O)N1[C@H](C(=O)N[C@@H](Cc2ccc(I)cc2)C(=O)N2CCC[C@H]2C(=O)N[C@H](Cc2ccc(-c3ccccc3)cc2)C(=O)O)C[C@@H]2CCCC[C@@H]21)C(=O)O	8.52	0.0027		

The next molecules have a higher pEC50 (Apelin receptor) than those just listed; values first:

pEC50 (Apelin receptor)	fraction unbound [1]	remaining at 4 h [2] [%]	remaining at 4 h [3] [%]	SMILES
9.62				CCCC(=O)N[C@@H](CCC(=O)NCCOCCOCC(=O)NCCOCCOCC(=O)N[C@@H](CCCCNC(=N)N)C(=O)N[C@H](CCCNC(=N)N)C(=O)N[C@@H](CCC(N)=O)C(=O)N[C@@H](CCCCNC(=N)N)C(=O)N1CCC[C@H]1C(=O)N[C@H](CCCNC(=N)N)C(=O)N(C)[C@@H](CC(C)C)C(=O)N[C@@H](CO)C(=O)N[C@@H](Cc1c[nH]cn1)C(=O)N[C@@H](CCCCN)C(=O)NCC(=O)N1[C@H](C(=O)N[C@@H](Cc2ccc(I)cc2)C(=O)N2CCC[C@H]2C(=O)N[C@H](Cc2ccc(-c3ccccc3)cc2)C(=O)O)C[C@@H]2CCCC[C@@H]21)C(=O)O
8.54				CC(C)C[C@@H](C(=O)N[C@@H](CO)C(=O)N[C@@H](Cc1c[nH]cn1)C(=O)N[C@@H](CCCCN)C(=O)NCC(=O)N1[C@H](C(=O)N[C@@H](Cc2ccc(I)cc2)C(=O)N2CCC[C@H]2C(=O)N[C@H](Cc2ccc(-c3ccccc3)cc2)C(=O)O)C[C@@H]2CCCC[C@@H]21)N(C)C(=O)[C@@H](CCCNC(=N)N)NC(=O)[C@@H]1CCCN1C(=O)[C@H](CCCCNC(=N)N)NC(=O)[C@H](CCC(N)=O)NC(=O)[C@@H](CCCNC(=N)N)NC(=O)[C@H](CCCCNC(=N)N)NC(=O)COCCOCCNC(=O)COCCOCCNC(=O)CC[C@H](NC(=O)CCCCCCCCC(=O)O)C(=O)O
9.04	0.001	30	> 90	CC(=O)N[C@@H](CCC(=O)NCCOCCOCC(=O)NCCOCCOCC(=O)N[C@@H](CCCCNC(=N)N)C(=O)N[C@H](CCCNC(=N)N)C(=O)N[C@@H](CCC(N)=O)C(=O)N[C@@H](CCCCNC(=N)N)C(=O)N1CCC[C@H]1C(=O)N[C@H](CCCNC(=N)N)C(=O)N(C)[C@@H](CC(C)C)C(=O)N[C@@H](CO)C(=O)N[C@@H](Cc1c[nH]cn1)C(=O)N[C@@H](CCCCN)C(=O)NCC(=O)N1[C@H](C(=O)N[C@@H](Cc2ccc(I)cc2)C(=O)N2CCC[C@H]2C(=O)N[C@H](Cc2ccc(-c3ccccc3)cc2)C(=O)O)C[C@@H]2CCCC[C@@H]21)C(=O)O
8.58				CC(C)C[C@@H](C(=O)N[C@@H](CO)C(=O)N[C@@H](Cc1c[nH]cn1)C(=O)N[C@@H](CCCCN)C(=O)NCC(=O)N1[C@H](C(=O)N[C@@H](Cc2ccc(I)cc2)C(=O)N2CCC[C@H]2C(=O)N[C@H](Cc2ccc(-c3ccccc3)cc2)C(=O)O)C[C@@H]2CCCC[C@@H]21)N(C)C(=O)[C@@H](CCCNC(=N)N)NC(=O)[C@@H]1CCCN1C(=O)[C@H](CCCCNC(=N)N)NC(=O)[C@H](CCC(N)=O)NC(=O)[C@@H](CCCNC(=N)N)NC(=O)[C@H](CCCCNC(=N)N)NC(=O)COCCOCCNC(=O)COCCOCCNC(=O)CC[C@H](NC(=O)CCCCCCC(=O)O)C(=O)O
9.31				CC(C)C[C@@H](C(=O)N[C@@H](CO)C(=O)N[C@@H](Cc1c[nH]cn1)C(=O)N[C@@H](CCCCN)C(=O)NCC(=O)N1[C@H](C(=O)N[C@@H](Cc2ccc(I)cc2)C(=O)N2CCC[C@H]2C(=O)N[C@H](Cc2ccc(-c3ccccc3)cc2)C(=O)O)C[C@@H]2CCCC[C@@H]21)N(C)C(=O)[C@@H](CCCNC(=N)N)NC(=O)[C@@H]1CCCN1C(=O)[C@H](CCCCNC(=N)N)NC(=O)[C@H](CCC(N)=O)NC(=O)[C@@H](CCCNC(=N)N)NC(=O)[C@H](CCCCNC(=N)N)NC(=O)COCCOCCNC(=O)COCCOCCNC(=O)CC[C@H](NC(=O)CCC(=O)O)C(=O)O
8.87				CCCCCCCCCC(=O)N[C@@H](CCC(=O)NCCOCCOCC(=O)NCCOCCOCC(=O)N[C@@H](CCCCNC(=N)N)C(=O)N[C@H](CCCNC(=N)N)C(=O)N[C@@H](CCC(N)=O)C(=O)N[C@@H](CCCCNC(=N)N)C(=O)N1CCC[C@H]1C(=O)N[C@H](CCCNC(=N)N)C(=O)N(C)[C@@H](CC(C)C)C(=O)N[C@@H](CO)C(=O)N[C@@H](Cc1c[nH]cn1)C(=O)N[C@@H](CCCCN)C(=O)NCC(=O)N1[C@H](C(=O)N[C@@H](Cc2ccc(I)cc2)C(=O)N2CCC[C@H]2C(=O)N[C@H](Cc2ccc(-c3ccccc3)cc2)C(=O)O)C[C@@H]2CCCC[C@@H]21)C(=O)O
